Laboratory results reported in patent US7179830B2, “Substituted thienoimidazoles useful for disease treatment and prevention” (Sanofi-aventis Deutschland GmbH, priority 2003, dated 2007).
Structures can show the parent of a compound that is named as a salt.

Columns and labels:
Assay type in all cases: cell-based
NHE3 = molecular target: T1, NHE3 (Homo sapiens, UniProt P48764); experiment: Determination of the NHE inhibition: recovery of intracellular pH after acidification (BCECF fluorescence), NHE3; settings: for IC50: pH recovery registered at three minutes
T1 construct: host or cells: cells, not specified
T1 sequence (P48764 26-834): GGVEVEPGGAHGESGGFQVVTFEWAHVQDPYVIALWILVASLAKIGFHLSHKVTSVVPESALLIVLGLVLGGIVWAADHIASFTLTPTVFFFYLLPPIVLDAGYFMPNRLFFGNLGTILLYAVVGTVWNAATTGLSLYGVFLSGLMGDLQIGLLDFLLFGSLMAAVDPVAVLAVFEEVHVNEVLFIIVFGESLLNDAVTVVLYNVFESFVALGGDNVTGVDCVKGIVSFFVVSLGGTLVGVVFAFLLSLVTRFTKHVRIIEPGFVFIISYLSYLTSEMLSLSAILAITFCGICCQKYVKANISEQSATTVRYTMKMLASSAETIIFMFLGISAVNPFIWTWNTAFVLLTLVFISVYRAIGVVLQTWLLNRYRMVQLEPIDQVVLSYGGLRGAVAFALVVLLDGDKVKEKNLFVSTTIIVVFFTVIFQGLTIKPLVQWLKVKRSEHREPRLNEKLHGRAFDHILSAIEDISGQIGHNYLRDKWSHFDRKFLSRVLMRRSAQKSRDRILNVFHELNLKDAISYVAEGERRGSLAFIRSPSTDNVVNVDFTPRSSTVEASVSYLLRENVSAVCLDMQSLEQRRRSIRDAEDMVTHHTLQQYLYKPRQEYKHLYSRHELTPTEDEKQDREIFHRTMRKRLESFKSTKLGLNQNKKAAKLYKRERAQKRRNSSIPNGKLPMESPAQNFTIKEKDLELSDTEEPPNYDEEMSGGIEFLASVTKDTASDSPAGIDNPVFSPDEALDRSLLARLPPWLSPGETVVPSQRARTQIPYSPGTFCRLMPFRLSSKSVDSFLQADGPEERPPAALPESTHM
Description: [drawing 14] is obtained by adding saturated sodium hydrogencarbonate solution to a suspension of 306 mg of 2-(2-chloro-4-methyl-3-thienylamino)-1H-thieno[3,4-d]imidazole hydrochloride (example 5) in 40 ml of water, in the course of which a pH of 10 is established. After the suspension had been stirred at room temperature for 1 hour, the solid was filtered off and washed repeatedly with water, and the product was dried in an air stream. Colorless crystalline product, decomposition point from 180° C. Pharmacological Data: Determination of the NHE Inhibition Test Description:
This test determined the recovery of the intracellular pH (pHi) after acidification, and this recovery occurs in the case of functional NHE even under bicarbonate-free conditions. To this end, the pHi was determined using the pH-sensitive fluorescent dye BCECF (Calbiochem, the BCECF-AM precursor is used). The cells were initially loaded with BCECF. The BCECF fluorescence was determined in a Ratio Fluorescence Spectrometer (Photon Technology International, South Brunswick, N.J., USA) at excitation wavelengths of 505 and 440 nm and an emission wavelength of 535 nm and converted to the pHi by means of calibration curves. The cells had already been incubated in NH4Cl buffer (pH 7.4) in the course of the BCECF loading (NH4Cl buffer: 115 mM NaCl, 20 mM NH4Cl, 5 mM KCl, 1 mM CaCl2, 1 mM MgSO4, 20 mM Hepes, 5 mM glucose, 1 mg/ml BSA; a pH of 7.4 is established using 1 M NaOH). The intracellular acidification is induced by adding 975 μl of an NH4Cl-free buffer (see below) to 25 μl aliquots of the cells incubated in NH4Cl buffer. The subsequent rate of the pH recovery was registered at two minutes for NHE1, at five minutes for NHE2 and at three minutes for NHE3. For the calculation of the inhibitory potency of the tested substances, the cells were initially investigated in buffers in which complete or absolutely no pH recovery took place. For complete pH recovery (100%), the cells were incubated in Na^+-containing buffer (133.8 mM NaCl, 4.7 mM KCl, 1.25 mM CaCl2, 1.25 mM MgCl2, 0.97 mM Na2HPO4, 0.23 mM NaH2PO4, 5 mM Hepes, 5 mM glucose, a pH of 7.0 is established using 1 M NaOH). For the determination of the 0% value, the cells were incubated in an Na^+-free buffer (133.8 mM choline chloride, 4.7 mM KCl, 1.25 mM CaCl2, 1.25 mM MgCl2, 0.97 mM K2HPO4, 0.23 mM KH2PO4, 5 mM Hepes, 5 mM glucose, a pH of 7.0 is established using 1 M KOH). The substances to be tested were made up in the Na^+-containing buffer. The recovery of the intracellular pH at each tested concentration of a substance was expressed in percent of the maximum recovery. The percentages of the pH recovery were used to calculate the IC50 value of the particular substance for the individual NHE subtypes by means of the program Sigma-Plot.

NHE1 = NHE1 (Homo sapiens, UniProt P19634); experiment: NHE inhibition, NHE1 subtype; settings: in a therapeutically utilizable concentration range
Description: (§1) This test determined the recovery of the intracellular pH (pHi) after acidification, and this recovery occurs in the case of functional NHE even under bicarbonate-free conditions. To this end, the pHi was determined using the pH-sensitive fluorescent dye BCECF (Calbiochem, the BCECF-AM precursor is used). The cells were initially loaded with BCECF. The BCECF fluorescence was determined in a Ratio Fluorescence Spectrometer (Photon Technology International, South Brunswick, N.J., USA) at excitation wavelengths of 505 and 440 nm and an emission wavelength of 535 nm and converted to the pHi by means of calibration curves. The cells had already been incubated in NH4Cl buffer (pH 7.4) in the course of the BCECF loading (NH4Cl buffer: 115 mM NaCl, 20 mM NH4Cl, 5 mM KCl, 1 mM CaCl2, 1 mM MgSO4, 20 mM Hepes, 5 mM glucose, 1 mg/ml BSA; a pH of 7.4 is established using 1 M NaOH). The intracellular acidification is induced by adding 975 μl of an NH4Cl-free buffer (see below) to 25 μl aliquots of the cells incubated in NH4Cl buffer. The subsequent rate of the pH recovery was registered at two minutes for NHE1, at five minutes for NHE2 and at three minutes for NHE3. For the calculation of the inhibitory potency of the tested substances, the cells were initially investigated in buffers in which complete or absolutely no pH recovery took place. […]

NHE5 = molecular target: T2, NHE5 (Homo sapiens, UniProt Q14940); experiment: NHE inhibition, NHE5 subtype; settings: in a therapeutically utilizable concentration range
T2 sequence (Q14940 1-896): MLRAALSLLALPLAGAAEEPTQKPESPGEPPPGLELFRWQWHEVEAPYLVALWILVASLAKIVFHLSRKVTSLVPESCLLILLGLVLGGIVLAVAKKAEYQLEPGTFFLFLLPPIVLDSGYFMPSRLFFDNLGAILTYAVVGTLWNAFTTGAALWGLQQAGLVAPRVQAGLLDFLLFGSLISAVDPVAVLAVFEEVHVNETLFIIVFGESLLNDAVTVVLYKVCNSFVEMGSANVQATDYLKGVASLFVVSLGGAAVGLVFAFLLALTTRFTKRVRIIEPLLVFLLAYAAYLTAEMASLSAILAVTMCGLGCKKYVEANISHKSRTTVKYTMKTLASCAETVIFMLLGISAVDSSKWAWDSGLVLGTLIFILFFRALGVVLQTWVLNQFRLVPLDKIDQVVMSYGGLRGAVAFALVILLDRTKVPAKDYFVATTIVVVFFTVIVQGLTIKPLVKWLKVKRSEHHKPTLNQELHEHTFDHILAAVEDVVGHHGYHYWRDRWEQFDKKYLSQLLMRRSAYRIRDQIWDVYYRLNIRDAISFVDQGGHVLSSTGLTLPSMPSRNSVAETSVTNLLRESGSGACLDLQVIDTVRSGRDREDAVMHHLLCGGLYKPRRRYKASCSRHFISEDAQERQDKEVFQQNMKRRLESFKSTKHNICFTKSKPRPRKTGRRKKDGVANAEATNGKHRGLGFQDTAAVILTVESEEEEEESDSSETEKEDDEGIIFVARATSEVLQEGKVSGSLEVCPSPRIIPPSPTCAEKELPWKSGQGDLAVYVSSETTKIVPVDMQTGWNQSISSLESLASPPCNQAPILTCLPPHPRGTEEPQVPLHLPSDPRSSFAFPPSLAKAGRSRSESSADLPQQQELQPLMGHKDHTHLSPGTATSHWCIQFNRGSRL

NHE2 = molecular target: T3, NHE2 (Homo sapiens, UniProt Q9UBY0); experiment: NHE inhibition, NHE2 subtype; settings: in a therapeutically utilizable concentration range
T3 sequence (Q9UBY0 1-812): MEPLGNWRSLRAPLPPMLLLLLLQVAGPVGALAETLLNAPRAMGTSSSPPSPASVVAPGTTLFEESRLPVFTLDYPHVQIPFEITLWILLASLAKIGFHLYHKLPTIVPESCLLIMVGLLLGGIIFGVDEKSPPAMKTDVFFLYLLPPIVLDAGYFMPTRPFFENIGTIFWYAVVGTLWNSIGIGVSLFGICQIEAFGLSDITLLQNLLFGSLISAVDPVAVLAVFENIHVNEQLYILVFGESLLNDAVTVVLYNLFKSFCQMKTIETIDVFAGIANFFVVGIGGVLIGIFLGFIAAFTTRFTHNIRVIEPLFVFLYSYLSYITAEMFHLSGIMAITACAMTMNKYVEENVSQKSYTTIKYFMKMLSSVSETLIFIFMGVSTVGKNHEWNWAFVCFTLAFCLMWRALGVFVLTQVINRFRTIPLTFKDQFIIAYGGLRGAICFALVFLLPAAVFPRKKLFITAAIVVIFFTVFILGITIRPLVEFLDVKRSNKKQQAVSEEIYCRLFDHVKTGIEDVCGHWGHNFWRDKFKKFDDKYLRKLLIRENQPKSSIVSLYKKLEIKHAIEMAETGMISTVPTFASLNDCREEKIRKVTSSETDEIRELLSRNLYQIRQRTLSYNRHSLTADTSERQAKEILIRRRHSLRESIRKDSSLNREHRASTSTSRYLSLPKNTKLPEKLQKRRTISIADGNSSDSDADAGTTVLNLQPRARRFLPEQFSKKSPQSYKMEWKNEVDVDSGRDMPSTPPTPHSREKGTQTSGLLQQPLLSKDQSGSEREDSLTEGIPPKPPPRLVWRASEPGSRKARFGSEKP
Description: as §1

NHE1, sequence (P19634 whole entry, species assumed): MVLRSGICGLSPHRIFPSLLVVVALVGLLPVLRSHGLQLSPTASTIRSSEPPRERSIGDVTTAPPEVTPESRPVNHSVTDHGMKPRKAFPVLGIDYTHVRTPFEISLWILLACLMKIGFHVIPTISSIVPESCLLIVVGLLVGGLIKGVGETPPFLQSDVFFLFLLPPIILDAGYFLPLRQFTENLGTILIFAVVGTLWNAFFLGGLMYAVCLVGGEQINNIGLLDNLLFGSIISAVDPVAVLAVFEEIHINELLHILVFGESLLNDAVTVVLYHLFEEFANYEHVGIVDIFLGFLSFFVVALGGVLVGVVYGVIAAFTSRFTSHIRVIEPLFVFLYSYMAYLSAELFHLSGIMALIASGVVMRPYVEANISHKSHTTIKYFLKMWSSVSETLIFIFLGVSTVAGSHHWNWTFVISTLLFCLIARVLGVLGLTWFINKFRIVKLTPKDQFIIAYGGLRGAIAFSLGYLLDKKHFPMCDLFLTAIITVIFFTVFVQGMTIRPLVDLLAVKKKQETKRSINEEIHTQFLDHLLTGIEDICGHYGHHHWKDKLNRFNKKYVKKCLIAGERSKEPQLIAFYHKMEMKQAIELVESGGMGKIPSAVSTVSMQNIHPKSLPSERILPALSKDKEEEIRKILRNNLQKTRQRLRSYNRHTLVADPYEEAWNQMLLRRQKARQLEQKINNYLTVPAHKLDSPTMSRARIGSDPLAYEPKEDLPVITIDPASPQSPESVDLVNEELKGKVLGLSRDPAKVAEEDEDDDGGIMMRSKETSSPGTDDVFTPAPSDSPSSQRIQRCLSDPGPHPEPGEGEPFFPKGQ

SMILES	IC50 (NHE3) [nM]	other results
Clc1cccc(Cl)c1Nc1nc2cscc2[nH]1 [Example 2, 2-(2,6-Dichlorophenylamino)-1H-thieno[3,4-d]imidazole hydrochloride]	220	
Cc1csc(Cl)c1Nc1nc2cscc2[nH]1 [Example 5, 2-(2-Chloro-4-methyl-3-thienylamino)-1H-thieno[3,4-d]imidazole hydrochloride]	150	
FC(F)(F)c1ccccc1Nc1nc2cscc2[nH]1 [Example 6, 2-(2-Trifluoromethylphenylamino)-1H-thieno[3,4-d]imidazole hydrochloride]	6510	
Cc1cccc(Cl)c1Nc1nc2cscc2[nH]1 [Example 9, 2-(2-Chloro-6-methylphenylamino)-1H-thieno[3,4-d]imidazole hydrochloride]	1430	
Clc1csc(Cl)c1Nc1nc2cscc2[nH]1 [Example 10, 2-(2,4-Dichloro-3-thienylamino)-1H-thieno[3,4-d]imidazole hydrochloride]	320	
Cc1csc(Cl)c1NC1=NCCN1 [tiamenidine]		inhibitory action on NHE1 (NHE1): no relevant inhibitory actions; inhibitory action on NHE3 (NHE3; in a therapeutically utilizable concentration range): no relevant inhibitory actions; inhibitory action on NHE5 (NHE5): no relevant inhibitory actions; inhibitory action on NHE2 (NHE2): no relevant inhibitory actions
